Source: ChEMBL document CHEMBL6103619, “Discovery of a Novel CRBN-Recruiting cGAS PROTAC Degrader for the Treatment of Ulcerative Colitis” (J Med Chem, 2025)
Calls of active or inactive are those of the source. The rule behind the calls is not given here.

Columns and labels:
Mus musculus [1] = test: (§1) Anti-inflammatory activity in DSS-induced ulcerative colitis C57BL/6 mouse model assessed as decrease in disease activity index at 20 to 50 mg/kg/day, ip preadministered with DSS for 7 days followed by replacement with ultrapure water for 3 days with subsequent compound administration starting from day 4 to 10 and measured on day 11; type: functional, organism-based; settings: dose 20-50 mg/kg/day, time 8.0 day
[2] = (§2) Inhibition of dsDNA-induced cGAS signaling pathway in mouse RAW-Lucia ISG cells preincubated with compound for 24 hrs followed by HT-DNA addition and measured after 24 hrs by QUANTI-Luc luciferase reagent based assay; type: cell-based
RAW-Lucia ISG [3] = test: as §2; type: cell-based; settings: time 48.0 hrs
RAW264.7 [4] = test: Cytotoxicity against mouse RAW264.7 cells assessed as reduction in cell viability at >30 uM incubated for 48 hrs by CCK8 assay; type: toxicity, cell-based; settings: raw264.7, 48 h
THP-1 [5] = test: Inhibition of ds-DNA induced cGAS-STING signaling pathway in human THP-1 cells assessed as reduction in IRF3 phosphorylation preincubated with compound for 40 hrs followed by HT-DNA addition and measured after 8 hrs by Western blot analysis; type: cell-based; settings: dose 0.7-20 µM, time 48.0 hrs
THP-1 [6] = test: Inhibition of cGAMP production in human THP-1 cells at 5 to 20 uM preincubated with compound for 36 hrs followed by HT-DNA addition and measured after 6 hrs by LC-MS analysis; type: functional, cell-based; settings: dose 5-20 µM, time 42.0 hrs
[7] = Cytotoxicity against human THP1-Lucia ISG cells assessed as reduction in cell viability at >30 uM incubated for 48 hrs by CCK8 assay; type: toxicity, cell-based
[8] = Cytotoxicity against mouse RAW-Lucia ISG cells assessed as reduction in cell viability at >30 uM incubated for 48 hrs by CCK8 assay; type: toxicity, cell-based
Mus musculus [9] = test: as §1, with “[…]” for “decrease”, “[…]” for “disease activity index”; type: functional, organism-based; settings: dose 20-50 mg/kg/day, time 8.0 day
Mus musculus [10] = test: as §1, with “reduction” for “decrease”, “IFNB mRNA level in colon” for “disease activity index”, “11 by qRT-PCR analysis” for “11”; type: functional, organism-based; settings: dose 20-50 mg/kg/day, time 8.0 day
Mus musculus [11] = test: as §1, with “body weight loss” for “disease activity index”; type: functional, organism-based; settings: dose 20-50 mg/kg/day, time 8.0 day
[12] = Drug distribution in male C57BL/6 mouse colon at 20 mg/kg, ip measured after 2 to 24 hrs by LC-MS/MS analysis; type: ADME, organism-based; settings: in vivo, time 2-24 hrs
RAW264.7 [13] = test: Downregulation of CXCL10 mRNA expression in mouse RAW264.7 cells preincubated with compound for 40 hrs followed by HT-DNA addition and measured after 8 hrs by qRT-PCR analysis; type: functional, cell-based; settings: dose 2.5-20 µM, time 48.0 hrs
Mus musculus [14] = test: as §1, with “reduction” for “decrease”, “TNF-alpha mRNA level in colon” for “disease activity index”, “11 by qRT-PCR analysis” for “11”; type: functional, organism-based; settings: dose 20-50 mg/kg/day, time 8.0 day
[15] = AUC (0 to 24 hrs) in male C57BL/6 mouse at 1 mg/kg, iv measured after 24 hrs by LC-MS/MS analysis; type: ADME, organism-based; settings: in vivo
[16] = target: Protein cereblon/Cyclic GMP-AMP synthase (Homo sapiens, UniProt Q96SW2+Q8N884); test: PROTAC activity at CRBN/cGAS in human THP-1 cells assessed as induction of cGAS degradation at 10 uM preincubated with MG132 for 2 hrs followed by compound addition and measured after 48 hrs by Western blot analysis; type: cell-based
Mus musculus [17] = test: as §1, with “increase” for “decrease”, “colon length” for “disease activity index”; type: functional, organism-based; settings: dose 20-50 mg/kg/day, time 8.0 day
RAW264.7 [18] = test: Upregulation of IFNB mRNA expression level in mouse Trex1-/- RAW264.7 cells at 5 to 20 uM incubated for 24 hrs by qRT-PCR analysis; type: functional, cell-based; settings: dose 5-20 µM
[19] = AUC (0 to 24 hrs) in male C57BL/6 mouse at 20 mg/kg, ip measured after 24 hrs by LC-MS/MS analysis; type: ADME, organism-based; settings: in vivo
[20] = MRT (0 to 24 hrs) in male C57BL/6 mouse at 1 mg/kg, iv measured after 24 hrs by LC-MS/MS analysis; type: ADME, organism-based; settings: in vivo
THP1-Lucia ISG = test: (§3) Potency index, ratio of 1-(6,7-dichloro-9-(1-methyl-1H-pyrazol-3-yl)-1,3,4,5-tetrahydro-2H-pyrido[4,3-b]indol-2-yl)-2-hydroxyethan-1-one IC50 to test compound IC50 for inhibition of dsDNA-induced cGAS signaling pathway in human THP1-Lucia ISG cells preincubated with compound for 24 hrs followed by HT-DNA addition and measured after 24 hrs by QUANTI-Luc luciferase reagent based assay; type: cell-based; settings: time 48.0 hrs
Mus musculus [21] = test: as §1, with “reduction” for “decrease”, “IL-6 secretion in colon” for “disease activity index”, “11 by ELISA” for “11”; type: functional, organism-based; settings: dose 20-50 mg/kg/day, time 8.0 day
[22] = target: T1, Protein cereblon/Cyclic GMP-AMP synthase (Mus musculus) (UniProt Q8C6L5+Q8C7D2); test: In vivo inhibition of cGAS signaling pathway in DSS-induced ulcerative colitis C57BL/6 mouse model assessed as reduction in IRF3 phosphorylation level in colon preadministered with DSS for 7 days followed by replacement with ultrapure water for 3 days with subsequent intraperitoneal compound administration starting from day 4 to 10 and measured on day 11 by Western blot analysis; type: functional, organism-based; settings: dose 20-50 mg/kg/day, route ip, time 8.0 day
[23] = target: T1, Protein cereblon/Cyclic GMP-AMP synthase (Mus musculus); test: PROTAC activity at CRBN/cGAS in mouse RAW264.7 cells assessed as induction of cGAS degradation by measuring maximal efficacy at 20 uM preincubated with compound for 40 hrs followed by HT-DNA stimulation and measured after 8 hrs by Western blot analysis relative to control; type: cell-based; settings: time 48.0 hrs
RAW-Lucia ISG [24] = test: as §3, with “mouse RAW-Lucia” for “human THP1-Lucia”; type: cell-based; settings: time 48.0 hrs
[25] = Clearance in male C57BL/6 mouse at 1 mg/kg, iv measured after 24 hrs by LC-MS/MS analysis; type: ADME, organism-based; settings: in vivo
[26] = MRT (0 to 24 hrs) in male C57BL/6 mouse at 20 mg/kg, ip measured after 24 hrs by LC-MS/MS analysis; type: ADME, organism-based; settings: in vivo
Mus musculus [27] = test: as §1, with “reduction” for “decrease”, “IL-6 mRNA level in colon” for “disease activity index”, “11 by qRT-PCR analysis” for “11”; type: functional, organism-based; settings: dose 20-50 mg/kg/day, time 8.0 day
[28] = Half-life in male C57BL/6 mouse at 20 mg/kg, ip measured after 24 hrs by LC-MS/MS analysis; type: ADME, organism-based; settings: in vivo
Mus musculus [29] = test: as §1, with “normal morphological appearance of spleen” for “decrease in disease activity index”, “11 by H and E staining based analysis” for “11”; type: functional, organism-based; settings: dose 20-50 mg/kg/day, time 8.0 day
[30] = AUC (0 to infinity) in male C57BL/6 mouse at 20 mg/kg, ip measured after 24 hrs by LC-MS/MS analysis; type: ADME, organism-based; settings: in vivo
[31] = Cmax in male C57BL/6 mouse at 20 mg/kg, ip measured after 24 hrs by LC-MS/MS analysis; type: ADME, organism-based; settings: in vivo

T1 sequence (Q8C6L5 whole entry, looked up): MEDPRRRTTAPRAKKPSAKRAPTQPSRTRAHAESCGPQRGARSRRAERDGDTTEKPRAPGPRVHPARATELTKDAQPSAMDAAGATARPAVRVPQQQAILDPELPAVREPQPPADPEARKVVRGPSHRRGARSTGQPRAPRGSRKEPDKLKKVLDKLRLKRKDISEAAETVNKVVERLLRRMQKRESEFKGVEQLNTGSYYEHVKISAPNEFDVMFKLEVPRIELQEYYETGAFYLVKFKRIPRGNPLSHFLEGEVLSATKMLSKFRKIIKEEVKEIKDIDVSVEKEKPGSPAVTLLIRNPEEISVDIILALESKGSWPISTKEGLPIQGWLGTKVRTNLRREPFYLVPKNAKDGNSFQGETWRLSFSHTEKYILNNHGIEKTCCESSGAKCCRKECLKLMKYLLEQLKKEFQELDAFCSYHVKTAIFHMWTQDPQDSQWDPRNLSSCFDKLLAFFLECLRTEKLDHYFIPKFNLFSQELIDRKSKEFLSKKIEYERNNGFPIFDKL
T1 sequence (Q8C7D2 whole entry, looked up): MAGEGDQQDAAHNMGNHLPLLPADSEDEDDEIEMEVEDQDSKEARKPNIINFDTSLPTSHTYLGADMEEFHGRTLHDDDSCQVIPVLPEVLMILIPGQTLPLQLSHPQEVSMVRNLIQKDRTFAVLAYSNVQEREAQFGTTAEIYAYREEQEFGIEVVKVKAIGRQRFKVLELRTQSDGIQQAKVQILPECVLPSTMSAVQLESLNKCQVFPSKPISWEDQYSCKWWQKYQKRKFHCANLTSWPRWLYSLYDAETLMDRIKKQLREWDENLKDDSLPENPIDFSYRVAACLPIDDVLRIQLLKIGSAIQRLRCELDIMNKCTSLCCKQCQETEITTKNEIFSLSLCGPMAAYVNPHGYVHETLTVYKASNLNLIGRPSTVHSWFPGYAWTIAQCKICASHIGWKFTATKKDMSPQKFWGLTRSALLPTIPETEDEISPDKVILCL
Sequence of Protein cereblon/Cyclic GMP-AMP synthase (Q8N884 whole entry, looked up): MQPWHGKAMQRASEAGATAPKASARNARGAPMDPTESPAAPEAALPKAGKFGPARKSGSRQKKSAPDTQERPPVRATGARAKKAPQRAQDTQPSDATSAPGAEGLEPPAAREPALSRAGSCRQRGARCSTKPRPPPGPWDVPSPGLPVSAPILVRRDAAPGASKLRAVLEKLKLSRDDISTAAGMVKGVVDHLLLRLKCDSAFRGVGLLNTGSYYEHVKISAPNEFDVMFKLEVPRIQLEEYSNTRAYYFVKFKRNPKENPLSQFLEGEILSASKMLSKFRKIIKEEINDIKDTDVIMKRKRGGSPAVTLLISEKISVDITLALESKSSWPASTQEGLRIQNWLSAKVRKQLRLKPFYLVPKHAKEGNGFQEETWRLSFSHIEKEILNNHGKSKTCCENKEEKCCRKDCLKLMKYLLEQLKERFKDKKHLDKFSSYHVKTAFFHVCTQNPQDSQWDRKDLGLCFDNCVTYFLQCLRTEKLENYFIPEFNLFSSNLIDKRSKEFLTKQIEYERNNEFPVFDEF
Sequence of Protein cereblon/Cyclic GMP-AMP synthase (Q96SW2 whole entry, looked up): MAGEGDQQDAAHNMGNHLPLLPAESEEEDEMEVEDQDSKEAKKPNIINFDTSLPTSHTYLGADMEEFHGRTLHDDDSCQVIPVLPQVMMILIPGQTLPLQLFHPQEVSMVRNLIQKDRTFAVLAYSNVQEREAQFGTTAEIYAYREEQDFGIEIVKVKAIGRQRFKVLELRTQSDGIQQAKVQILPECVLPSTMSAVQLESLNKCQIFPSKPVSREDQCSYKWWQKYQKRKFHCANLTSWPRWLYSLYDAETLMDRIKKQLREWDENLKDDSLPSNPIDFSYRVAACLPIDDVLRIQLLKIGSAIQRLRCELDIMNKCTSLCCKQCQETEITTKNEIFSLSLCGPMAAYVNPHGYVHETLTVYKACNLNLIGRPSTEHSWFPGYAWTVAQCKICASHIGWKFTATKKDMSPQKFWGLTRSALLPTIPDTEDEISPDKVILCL

IC50 [2]: 4.8 µM
Drug uptake [12]: Active
AUC(0-t) at 24 h [15]: 530 ng·h/mL
Activity [16]: inactive
AUC(0-t) at 24 h [19]: 2020 ng·h/mL
MRT last at 24 h [20]: 0.9 h
Emax [23]: 91.6%
clearance [25]: 31.7 mL/min/kg
MRT last at 24 h [26]: 7.9 h
half-life [28]: 13.7 h
AUC(0-inf) [30]: 2800 ng·h/mL
Cmax [31]: 248 ng/mL
Structure (SMILES): Cn1ccc(-c2cc(Cl)c(Cl)c3[nH]c4c(c23)CN(C(=O)CNC(=O)CCCC#Cc2cccc3c2CN(C2CCC(=O)NC2=O)C3=O)CC4)n1 (configuration not stated)
Activity (Mus musculus [1]): Active
inhibition (RAW-Lucia ISG [3]): Dose-dependent-effect
Activity (RAW264.7 [4]): Toxic
inhibition (THP-1 [5]): Dose-dependent-effect
inhibition (THP-1 [6]): Active
Activity [7]: Toxic
Activity [8]: Toxic
Activity (Mus musculus [9]): Active
Activity (Mus musculus [10]): Active
Activity (Mus musculus [11]): Active
Activity (RAW264.7 [13]): Dose-dependent-effect
Activity (Mus musculus [14]): Active
Activity (Mus musculus [17]): Active
Activity (RAW264.7 [18]): Active
Ratio IC50 (THP1-Lucia ISG): 3
Activity (Mus musculus [21]): Active
inhibition [22]: Dose-dependent-effect
Ratio IC50 (RAW-Lucia ISG [24]): 3
Activity (Mus musculus [27]): Active
Activity (Mus musculus [29]): Active
